Measured values as given in article PMC11680018, “Study of Cytotoxicity of Spiro-Fused [3-Azabicyclo[3.1.0]hexane]oxindoles and Cyclopropa[a]pyrrolizidine-oxindoles Against Tumor Cell Lines” (Pharmaceuticals, 2024).
“And” between values parts separate entries of the source, which are not always exact repeats. Equal entries are not always repeated. Where two headings read alike, the source gives them in different places.

How the values were obtained:
[1] = system: K562, Jurkat, HeLa, Sk-mel-2, MCF-7 and CT26 cell lines; test: MTS cell proliferation assay, panel of cell lines (summary statements); assay type: cell-based
Method: Cancer cell lines are valuable in vitro model systems that are widely used in cancer research and drug discovery. Their use is mainly linked to their possibility to provide for experimental purposes an unlimited source of biological material. Here, the 24 and 72 h in vitro MTS assay was used to determine the antiproliferative activity of synthesized spiro-fused cyclopropa[a]pyrrolizidine-2,3′-oxindoles and [3-azabicyclo[3.1.0]hexane]-oxindoles against human erythroleukemia (K562), acute T cell leukemia (Jurkat), cervical carcinoma (HeLa), melanoma (Sk-mel-2), breast cancer adenocarcinoma (MCF-7) as well as mouse colon carcinoma (CT26) cell lines. […] The full results of these investigations are presented in the Supporting Information Figures S1–S6. […] An evaluation of the cytotoxicity of the selected compounds towards normal cells (peripheral blood mononuclear cells) was performed additionally to understand their respective relative selectivities. The selectivity index was obtained using the ratio of measured cytotoxicity between the PBMC cells and each of the cancer cell lines, and the results are presented in Table 3.
The human erythroleukemia (K-562), cervical carcinoma (HeLa) as well as mouse colon carcinoma (CT26) cell lines were obtained from the Bank of Cell Cultures of the Institute of Cytology of the Russian Academy of Sciences; the human melanoma (Sk-mel-2) cell line was obtained from the Bank of Cell Cultures of the Institute of Cytology and Genetics, Siberian Branch of the Russian Academy of Sciences. The acute T cell leukemia (Jurkat) cell line was obtained from the Bank of Cell Cultures of the Institute of Immunology of the Russian Academy of Medical Sciences. The peripheral blood mononuclear cells (PBMC) were isolated from the blood of healthy donors. K-562, Jurkat, MCF-7, PBMC and CT26 cells were grown on RPMI medium (Hyclone, GE Healthcare Life Sciences, Logan, UT, USA) supplemented with 10% (v/v) fetal bovine serum (Hyclone, GE Healthcare Life Sciences, Logan, UT, USA) and gentamicin (Sigma-Aldrich, St. Louis, MO, USA) at 37 °C in a humidified atmosphere with 5% CO2. HeLa and Sk-mel-2 cells were cultured with the same supplements and conditions in DMEM medium (Hyclone, GE Healthcare Life Sciences, Logan, UT, USA).
To evaluate the in vitro toxicity of the compounds synthesized, cells were seeded into 96-well plates at a density of 5 × 10^3 cells per well. On the next day, the tested compounds were added to the wells at concentrations ranging from 1 to 30 μg/mL, followed by incubation for 1 and 3 days. Cell proliferation was determined by adding 20 μL of MTS reagent (BioVision, Milpitas, CA, USA) stock solution per well. The plates were incubated for 2 h at 37 °C in a humidified, 5% CO2 atmosphere. The plates were then read at 495 nm using a plate spectrophotometer (Multiskan GO, Thermo Fisher Scientific, Waltham, MA, USA). All samples were measured in triplicate.

K562 cells = test: Cell cycle analysis by flow cytometry; assay type: cell-based, human; settings: 24 h; for K562 cells in SubG1 phase: control 4.5 ± 0.9; for K562 cells in G2/M phase: control 23.1 ± 1.7; for K562 cells in S phase: control 31.9 ± 1.0; for K562 cells in G0/G1 phase: control 40.5 ± 1.3; for Total percentage of K562 cells in the SubG1 and G0/G1 phases: control 45.0%
From the text: Since growth inhibition may be a result of cell cycle arrest at a particular point, the specific antiproliferative activity of several cycloadducts was further evaluated by flow cytometry to study their impact on the progression of the cell cycle in K562 cells. The assay utilizes propidium iodide-based staining of DNA content to distinguish and measure the accumulation of cells in each cell cycle phase (SubG, G0/G1, S and G2/M).
The distribution of K562 cells in the G0/G1-, S- and G2/M-phases of the cell cycle was obtained by quantification of DNA content using flow cytometry in DAPI-stained cells. Briefly, cells were seeded at a density of 5 × 10^4 cells per well in 24-well plates. […] After incubation with drugs, the cells were harvested by pipetting. This was followed by treatment with 0.2 mg/mL saponin (Fluka, Waltham, MA, USA) and 0.05 mg/mL DAPI (Thermo scientific, Rockford, IL, USA). After washing, the samples were analyzed using a standard flow cytometer (BD FACSCanto II, Becton Dickinson, San Jose, CA, USA). A total of 10,000 events were acquired for the samples. Data processing was performed using the BD FACSDiva 9.0 software.

[2] = system: human melanoma (Sk-mel-2) cell line; test: Cell motility by scratch test; assay type: cell-based; settings: 10 μg/mL, 36 h, serum-free DMEM; nontreated cells 69.5 ± 17.2
Method: To assess the potential ability of spiro-fused [3-azabicyclo[3.1.0]hexane]oxindoles 4, 11, 12, 18, 24 and cyclopropa[a]pyrrolizidine-2,3′-oxindole 2 to inhibit metastasis associated with cell motility, a scratch test was performed on the human melanoma (Sk-mel-2) cell line. Different fields were analyzed by bright field, and each scratch area was photographed at 0 and 36 h for non-toxic and fast cell visualization. Nontreated Sk-mel-2 cells filled 69.5 ± 17.2, 41.5 ± 5.3, 59.7 ± 8.1, 49.3 ± 5.3, 43.0 ± 12.6, 26.1 ± 2.5 and 55.9 ± 8.6% of the scratched strip while under treatment with spiro-fused oxindole derivatives 2, 4, 11, 12, 18 and 24 cells, respectively.
Cells were seeded at a density of 5 × 10^5 cells per dish onto petri dishes and grown to confluency. A 200 μL pipette tip was used to make scratch wounds and detached cells were removed after that by washing with phosphate-buffered saline. Culture media was replaced with serum-free DMEM in order to inhibit cell proliferation. Compounds to be screened were added at a dose of 10 μg/mL to the cultures and incubated for 36 h. Different fields were analyzed by bright field, and each scratch area was photographed at 0 and 36 h. Images were captured using an Axio Observer Z1 confocal microscope (Carl Zeiss MicroImaging GmbH, Jena, Germany). The percent of wound closure in five randomly chosen fields was calculated with ImageJ software, 1.52v.

[3] = 72 h, range over four cell lines and compounds, read-out: IC50 against the Jurkat, K-562, HeLa and Sk-mel-2 cell lines

SMILES | IC50 [1, 3] [µM] | IC50 ([1]; range over cell lines, except for the breast cancer cell line, read-out: IC50 over the tested cell lines) | K562 cells in SubG1 phase (K562 cells; 5 μg/mL) [%] | K562 cells in G2/M phase (K562 cells; 5 μg/mL) [%] | K562 cells in S phase (K562 cells; 5 μg/mL) [%] | K562 cells in G0/G1 phase (K562 cells; 5 μg/mL) [%] | K562 cells in SubG1 phase (K562 cells; 10 μg/mL) | K562 cells in G2/M phase (K562 cells; 10 μg/mL) [%] | K562 cells in S phase (K562 cells; 10 μg/mL) [%] | K562 cells in G0/G1 phase (K562 cells; 10 μg/mL) | Total percentage of K562 cells in the SubG1 and G0/G1 phases (K562 cells; 10 μg/mL) | K562 cells in SubG1 phase (K562 cells; 20 μg/mL) [%] | K562 cells in G2/M phase (K562 cells; 20 μg/mL) [%] | K562 cells in S phase (K562 cells; 20 μg/mL) [%] | K562 cells in G0/G1 phase (K562 cells; 20 μg/mL) [%] | Part of the scratched strip filled by Sk-mel-2 cells [2] [%]
O=C1Nc2ccc([N+](=O)[O-])cc2C12N1CCCC1C1(c3ccccc3)C(c3ccccc3)C12c1ccccc1 (stereo not shown) [Compound 2] | – | 2 µg/mL to 12 µg/mL and 4 µM to 23 µM | 5.3 ± 0.3 | 17.4 ± 0.4 | 29.5 ± 0.6 | 47.7 ± 0.5 | 7.7% and 7.7 ± 0.4% | 7.8 ± 0.3 | 15.6 ± 0.4 | 68.8 ± 0.5% | 74.0–77.5% | 5.8 ± 0.3 | 7.3 ± 0.2 | 14.5 ± 0.2 | 72.5 ± 0.5 | 41.5 ± 5.3
CC[C@H](C)C1NC2(C(=O)Nc3ccccc32)C2(c3ccccc3)C(C(=O)OC)C12c1ccccc1 (stereo partly shown) [Compound 4] | 2 to 10 | – | 4.3 ± 0.2 | 16.5 ± 0.2 | 26.6 ± 0.7 | 52.6 ± 0.7 | 4.8 ± 0.5% | 11.9 ± 0.6 | 26.4 ± 0.3 | 56.9 ± 0.6% | – | 4.9 ± 0.2 | 6.9 ± 0.4 | 17.4 ± 0.4 | 71.2 ± 0.4 | 59.7 ± 8.1
CC(C)C1NC2(C(=O)Nc3ccccc32)C2(c3ccccc3)C(c3ccccc3)C12c1ccccc1 (stereo not shown) [Compound 8] | 2 to 10 | – | 2.1 ± 0.1 | 9.2 ± 0.3 | 25.7 ± 0.1 | 63.1 ± 0.4 | 4.1 ± 0.2% | 5.9 ± 0.2 | 16.6 ± 0.2 | 73.5% and 73.5 ± 0.5% | 74.0–77.5% | 3.6 ± 0.2 | 7.1 ± 0.1 | 17.0 ± 0.2 | 72.4 ± 0.2 | –
COC(=O)C1C2(c3ccccc3)C(Cc3ccc(O)cc3)NC3(C(=O)Nc4ccccc43)C12c1ccccc1 (stereo not shown) [Compound 17] | – | – | 2.5 ± 0.3 | 16.7 ± 1.0 | 25.1 ± 0.4 | 55.6 ± 0.3 | 5.3 ± 0.4% | 8.8 ± 0.4 | 14.3 ± 0.1 | 71.5 ± 0.5% | 74.0–77.5% | 1.8 ± 0.2 | 7.2 ± 0.3 | 16.4 ± 0.5 | 74.5 ± 0.8 | –

Further lines, with some results ahead:

IC50 [1, 3] [µM] | SMILES | IC50 ([1]; range over cell lines, except for the breast cancer cell line, read-out: IC50 over the tested cell lines) | K562 cells in SubG1 phase (K562 cells; 5 μg/mL) [%] | K562 cells in G2/M phase (K562 cells; 5 μg/mL) [%] | K562 cells in S phase (K562 cells; 5 μg/mL) [%] | K562 cells in G0/G1 phase (K562 cells; 5 μg/mL) [%] | K562 cells in SubG1 phase (K562 cells; 10 μg/mL) | K562 cells in G2/M phase (K562 cells; 10 μg/mL) [%] | K562 cells in S phase (K562 cells; 10 μg/mL) [%] | K562 cells in G0/G1 phase (K562 cells; 10 μg/mL) | Total percentage of K562 cells in the SubG1 and G0/G1 phases (K562 cells; 10 μg/mL) | K562 cells in SubG1 phase (K562 cells; 20 μg/mL) [%] | K562 cells in G2/M phase (K562 cells; 20 μg/mL) [%] | K562 cells in S phase (K562 cells; 20 μg/mL) [%] | K562 cells in G0/G1 phase (K562 cells; 20 μg/mL) [%] | Part of the scratched strip filled by Sk-mel-2 cells [2] [%]
2 to 10 | NC(=O)CC1NC2(C(=O)Nc3ccccc32)C2(c3ccccc3)C(c3ccccc3)C12c1ccccc1 (stereo not shown) [Compound 18] | – | 3.2 ± 0.1 | 14.4 ± 0.5 | 31.4 ± 0.1 | 51.0 ± 0.7 | 3.9 ± 0.2% | 7.0 ± 0.4 | 19.0 ± 0.6 | 70.1 ± 0.5% | 74.0–77.5% | 3.6 ± 0.1 | 8.6 ± 0.3 | 22.8 ± 0.4 | 65.0 ± 0.4 | 26.1 ± 2.5
2 to 10 | CSCCC1NC2(C(=O)Nc3ccccc32)C2(c3ccccc3)C(c3ccccc3)C12c1ccccc1 (stereo not shown) [Compound 24] | – | – | – | – | – | – | – | – | – | – | – | – | – | – | 55.9 ± 8.6
